These are literature values, as cited in patent US12121516B2, “Pharmaceutical composition comprising selexipag” (ACTELION PHARMACEUTICALS LTD, priority 2017, dated 2024).

In data set [1] the test system is patients with pulmonary arterial hypertension. To be noted: phase III, versus placebo.
Data set [2] deals with healthy subjects. To be noted: administered orally or by i.v. infusion.

Regarding `CC(C)N(CCCCOCC(=O)NS(C)(=O)=O)c1cnc(-c2ccccc2)c(-c2ccccc2)n1` [selexipag, 2-{4-[N-(5,6-diphenylpyrazin-2-yl)-N-isopropylamino]butyloxy}-N-(methylsulfonyl)acetamide], in data set [1], the “risk of the primary composite end point of death or a complication related to pulmonary arterial hypertension” value is on record as “significantly lower”. The tolerability entry in data set [2] is recorded as “generally well tolerated”.
